From patent US20230094545A1, “S1P RECEPTOR MODULATORS” (AKAAL PHARMA PTY LTD, priority 2020, published 2023) come the findings set out here.

For one assay, the system named is excision wound. Put plainly: Animal model of excision wound. Type of assay: in vivo, Wistar rats. As to conditions: 3% w/w ointment, 0.20 g/animal wound, topically twice daily. Here is the method:
Two groups with six Wistar rats in each group were anaesthetized with a dose of 80 mg/kg of ketamine (i.p.) and the back of the animals were shaved. One excision wound was inflicted by cutting away (with a sterile scalpel) a 600-700 mm^2 section of the full thickness of the skin from a predetermined area. The wound was left undressed to the open environment. Group 1 rats were untreated and served as sham control. Group 2 animals were treated with a compound of Formula I in an ointment formulation (3% w/w). The ointment (0.20 g/animal wound) was applied topically twice daily.

Assay [1] has as its system middle cerebral artery occlusion (MCAO). The experiment in a line: Middle cerebral artery occlusion (MCAO) model of stroke. Type of assay: in vivo. As to conditions: oral 1, 3 and 5 mg/kg; ischemia 60 min, reperfusion 72 h. Here is the method: The compound of Formula I was assessed in an animal model of stroke, namely the middle cerebral artery occlusion (MCAO) model. The effect of a compound of Formula I on infarctions (TTC staining) and BBB leakage (Evan's blue extravasation) ischemia for 60 min and reperfusion for 72 h was assessed.

Molecules are shown by their SMILES.

As to `CCCOc1ccc(-c2nc(-c3ccc4oc(C(N)(CO)CO)cc4c3)no2)cc1Cl` [compound of formula (I)], in the assay with excision wound, the wound healing entry was “did not inhibit or impair the wound healing”. Also, in assay [1], the “infarct volume, infarct area, sensory motor function, blood brain barrier leakage” value was “significantly reduced the infarct volume, infract area and sensory motor function and blood brain barrier leakage”.
